Assay results taken from BindingDB's records for doi:10.1021/jm050654o (University of Bari Aldo Moro, 2005).

Assay: Antiproliferative activity mediated by sigma 1 receptor in rat C6 glioma cells by MTT assay

Row | Structure (SMILES) | EC50 [µM]
1 | CCCN(CCC)CCc1ccc(OC)c(OCCc2ccccc2)c1 | 10.7
2 | COc1ccc2c(CCCN3CCCC(C)(C)C3)cccc2c1 | 40.2
3 | COc1ccc2c(CCCCN3CCCCC3)cccc2c1 | 19.4
4 | COc1ccc2c(CCCCN3CCCC(C)(C)C3)cccc2c1 | 15
5 | COc1ccc2c(CCCCN3CCC(C)CC3)cccc2c1 | 25.5
